Experimental findings from the OligoGym collection are described below.

Values joined by “and” are separate entries in the source; they are usually repeats but may differ in a detail not shown here. Identical values can stand only once. After the bases stand the sugars from the 5' end (letter, count) and the backbone: PS all phosphorothioate, else s phosphorothioate and o phosphodiester by linkage. Methylation of C is not given here. e = 2'-O-(2-methoxyethyl) (MOE); k = constrained ethyl (cEt); d = 2'-deoxy (DNA)

In the first data set the target is IRF4. The following applies: ASO, MM.1R, 0.0625 µM.
Consider “AGCAGTGATGTCAGGT (sugars kkdddddddddekeke, PS)”, for which the target mRNA inhibition is 32%.

Still in this data set, the particulars now being: ASO, MM.1R, 0.074 µM.
For the sequence AGCACTGGCATTGAGA (sugars k3 d10 k3, PS), the target mRNA inhibition was determined as 4%.

The same data set, now with this note: ASO, MM.1R, 0.222 µM.
Turning to AGCACTGGCATTGAGA (sugars k3 d10 k3, PS), the target mRNA inhibition was 0%.

The same data set, now with this note: ASO, MM.1R, 0.25 µM.
In the case of “AGCAGTGATGTCAGGT (sugars kkdddddddddekeke, PS)”, the target mRNA inhibition stood at 54%.

The same data set, now with this note: ASO, MM.1R, 0.666 µM.
As to AGCACTGGCATTGAGA (sugars k3 d10 k3, PS), the target mRNA inhibition is 10%.

The same data set, now with this note: ASO, MM.1R, 1 µM.
Consider “AGCAGTGATGTCAGGT (sugars k2 d9 e3 k2, PS)”, for which the target mRNA inhibition was 69% and 56%.

With “AGCAGTGATGTCAGGT (sugars kkdddddddddekeke, PS)”, the target mRNA inhibition was 72% and 70% and 69%.

On to “AGCATTTTATCATCCG (sugars kddddddddddkekek, PS)”, for which the target mRNA inhibition amounted to 36%.

“AGCATTTTATCATCCG (sugars kkdddddddddekeke, PS)”: the target mRNA inhibition stood at 46%.

As to “AGCATTTTATCATCCG (sugars kkkddddddddkekek, PS)”, the target mRNA inhibition turned out to be 22%.

For AGCCCTTGCTGCAAAT (sugars k3 d10 k3, PS), the target mRNA inhibition was -11%.

On to AGCGACCCAAATGTGG (sugars k3 d10 k3, PS), for which the target mRNA inhibition is -2%.

In the case of AGCTAGCGCGCACTAA (sugars k3 d10 k3, PS), the target mRNA inhibition is -8%.

On to AGCTCAATAATCTCCC (sugars k3 d10 k3, PS), for which the target mRNA inhibition is 6%.

As for AGCTTACTGTGATTCT (sugars k3 d10 k3, PS), the target mRNA inhibition is 13%.

Take “AGCTTGATAAAGGCTG (sugars e1 k2 d9 k2 e2, PS)”: the target mRNA inhibition was 1%.

For “AGCTTGATAAAGGCTG (sugars k2 d9 e3 k2, PS)”, the target mRNA inhibition turned out to be 3%.

For “AGCTTGATAAAGGCTG (sugars kkkdddddddddkeke, PS)”, the target mRNA inhibition is -8%.

In the case of “AGGCACATCAATGTTT (sugars kkdddddddddekeke, PS)”, the target mRNA inhibition is 42% and 35%.

Turning to “AGGCACATCAATGTTT (sugars kkdddddddddkekek, PS)”, the target mRNA inhibition was 16% and 19%.

In the case of AGGTAAGATCTCCATG (sugars k3 d10 k3, PS), the target mRNA inhibition is 32%.

With AGGTTGCCGAGATATA (sugars k3 d10 k3, PS), the target mRNA inhibition was 54% and 67%.

As to “AGTATGAGAAACGGCC (sugars kddddddddddkekek, PS)”, the target mRNA inhibition worked out at 10%.

In the case of “AGTATGAGAAACGGCC (sugars kkdddddddddekeke, PS)”, the target mRNA inhibition turned out to be 11%.

In the case of “AGTGACTTGCATCCAT (sugars k2 d9 e3 k2, PS)”, the target mRNA inhibition turned out to be 52%.

In the case of “AGTGACTTGCATCCAT (sugars kdddddddddkekeke, PS)”, the target mRNA inhibition worked out at 8%.

For the sequence “AGTGATGTCAGGTTTT (sugars k2 d9 e3 k2, PS)”, the target mRNA inhibition was found to be 25%.

As to “AGTGATGTCAGGTTTT (sugars kdddddddddkekeke, PS)”, the target mRNA inhibition was 40%.

“AGTGATGTCAGGTTTT (sugars kkddddddddddkeke, PS)”: the target mRNA inhibition amounted to 32%.

On to “AGTGATGTCAGGTTTT (sugars kkkddddddddkekek, PS)”, for which the target mRNA inhibition turned out to be 37%.

Take “AGTGTCTAAAGTCCCA (sugars kdddddddddkekeke, PS)”: the target mRNA inhibition is -12% and 12%.

For the sequence “AGTGTCTAAAGTCCCA (sugars kkdddddddddekeke, PS)”, the target mRNA inhibition is 18% and 19%.

As to “AGTGTCTAAAGTCCCA (sugars kkdddddddddkekek, PS)”, the target mRNA inhibition was 26% and 9%.

The same data set, now with this note: ASO, MM.1R, 2 µM.
For the sequence AGCACTGGCATTGAGA (sugars k3 d10 k3, PS), the target mRNA inhibition stood at 24%.

The same data set, now with this note: ASO, MM.1R, 4 µM.
As for “AGCAGTGATGTCAGGT (sugars kkdddddddddekeke, PS)”, the target mRNA inhibition turned out to be 86%.

Still in this data set, the particulars now being: ASO, SK-MEL-28, 0.185 µM.
As to AGCACTGGCATTGAGA (sugars k3 d10 k3, PS), the target mRNA inhibition was -4% and 10% and -11%.

The same data set, now with this note: ASO, SK-MEL-28, 4 µM.
On to AGCACTGGCATTGAGA (sugars k3 d10 k3, PS), for which the target mRNA inhibition was 74%.

As to AGCATTTTATCATCCG (sugars k3 d10 k3, PS), the target mRNA inhibition came out at 81%.

For AGCCAAAGTGACTTAA (sugars k3 d10 k3, PS), the target mRNA inhibition was found to be 58%.

AGCCAACTTATAGCAC (sugars k3 d10 k3, PS): the target mRNA inhibition is 54%.

On to AGCCAAGAGGTGCGAG (sugars k3 d10 k3, PS), for which the target mRNA inhibition is 38%.

As to AGCCAAGGAGGCGGGC (sugars k3 d10 k3, PS), the target mRNA inhibition is -1%.

On to AGCCACGAGGCACCGC (sugars k3 d10 k3, PS), for which the target mRNA inhibition amounted to 12%.

In the case of AGCCATAGCAAATGGC (sugars k3 d10 k3, PS), the target mRNA inhibition was 5%.

For AGCTAGTTCATTCCCT (sugars k3 d10 k3, PS), the target mRNA inhibition was 48%.

As to AGCTGAATGCTCTCCA (sugars k3 d10 k3, PS), the target mRNA inhibition is 78%.

As to AGCTGTATTTATGCCC (sugars k3 d10 k3, PS), the target mRNA inhibition was 58%.

Consider AGCTTAGTCACCACGG (sugars k3 d10 k3, PS), for which the target mRNA inhibition is 67%.

Turning to AGCTTGCAGGTCTGGT (sugars k3 d10 k3, PS), the target mRNA inhibition came to 53%.

With AGGAAACCGCTGGCAG (sugars k3 d10 k3, PS), the target mRNA inhibition amounted to 56%.

As to AGGAACAATCCTGTAC (sugars k3 d10 k3, PS), the target mRNA inhibition is 16%.

As for AGGAATGAGGAAGCCG (sugars k3 d10 k3, PS), the target mRNA inhibition came to 56%.

Take AGGAATGGCGGATAGA (sugars k3 d10 k3, PS): the target mRNA inhibition stood at 38%.

For AGGAGGGTTGGCCTGC (sugars k3 d10 k3, PS), the target mRNA inhibition was 4%.

For the sequence AGGATAATATACCCCA (sugars k3 d10 k3, PS), the target mRNA inhibition came to 74%.

AGGCACATGAGAAATC (sugars k3 d10 k3, PS): the target mRNA inhibition came to 23%.

Regarding AGGCGCGGACGCACGG (sugars k3 d10 k3, PS), the target mRNA inhibition came to 31%.

Take AGGCTCCTACCCGCCT (sugars k3 d10 k3, PS): the target mRNA inhibition was 6%.

As to AGGGAGACAGCTCTAG (sugars k3 d10 k3, PS), the target mRNA inhibition stood at 25%.

Consider AGGTAAATCTTCACTG (sugars k3 d10 k3, PS), for which the target mRNA inhibition was 54%.

For AGGTAGTAGACCACAG (sugars k3 d10 k3, PS), the target mRNA inhibition was 59%.

For the sequence AGTAAACTTGGCTGTG (sugars k3 d10 k3, PS), the target mRNA inhibition was determined as 38%.

Regarding AGTAAGAGGGCAGTCA (sugars k3 d10 k3, PS), the target mRNA inhibition came to 50%.

As for AGTATGAGAAACGGCC (sugars k3 d10 k3, PS), the target mRNA inhibition was found to be 62%.

In the case of AGTCACGCAATGGCAA (sugars k3 d10 k3, PS), the target mRNA inhibition is 50%.

Take AGTCAGTGTCAATACT (sugars k3 d10 k3, PS): the target mRNA inhibition amounted to 47%.

As for AGTCTTTTCGCATAGA (sugars k3 d10 k3, PS), the target mRNA inhibition was determined as 45%.

In the case of AGTGATGAGATATTCC (sugars k3 d10 k3, PS), the target mRNA inhibition is 59%.

As to AGTGATGTCAGGTTTT (sugars k3 d10 k3, PS), the target mRNA inhibition stood at 72%.

AGTGCAGGAGAGGCTG (sugars k3 d10 k3, PS): the target mRNA inhibition came out at 36%.

With AGTGCCCAAGCCTTGA (sugars k3 d10 k3, PS), the target mRNA inhibition is 48%.

On to AGTGGAGGTCTTTGGG (sugars k3 d10 k3, PS), for which the target mRNA inhibition is 55%.

In the case of AGTGTAACTGAGGACT (sugars k3 d10 k3, PS), the target mRNA inhibition was -7%.

The data set is the same for the next values; noted with them: ASO, SK-MEL-28, 15 µM.
On to AGCACTGGCATTGAGA (sugars k3 d10 k3, PS), for which the target mRNA inhibition was 86% and 83% and 98%.
